Assays:
human tyrosinase (hTyr) [1] = target: T1, human tyrosinase (hTyr) (Homo sapiens, UniProt P14679); test: L-Dopa oxidase activity of hTyr, dose-response profiles (MBTH assay); assay type: biochemical; design: A truncated, His-tagged form of hTyr (hTyr-DHis) was expressed in HEK 293 cells; His tag; made in house; host or cells: HEK 293 cells; conditions: for EC50: dopa oxidase activity of hTyr, 1 mM L-Dopa, phosphate buffer pH 7.0, 37 °C, values above 3 mM given as >3000; for factor by which inhibitory activity is impaired when thiazole is replaced by another ring: versus the corresponding thiazole compound (W547, W548); for inhibition of hTyr, result in words: comparison of EC50 values
T1 sequence (P14679 19-476 limits assumed): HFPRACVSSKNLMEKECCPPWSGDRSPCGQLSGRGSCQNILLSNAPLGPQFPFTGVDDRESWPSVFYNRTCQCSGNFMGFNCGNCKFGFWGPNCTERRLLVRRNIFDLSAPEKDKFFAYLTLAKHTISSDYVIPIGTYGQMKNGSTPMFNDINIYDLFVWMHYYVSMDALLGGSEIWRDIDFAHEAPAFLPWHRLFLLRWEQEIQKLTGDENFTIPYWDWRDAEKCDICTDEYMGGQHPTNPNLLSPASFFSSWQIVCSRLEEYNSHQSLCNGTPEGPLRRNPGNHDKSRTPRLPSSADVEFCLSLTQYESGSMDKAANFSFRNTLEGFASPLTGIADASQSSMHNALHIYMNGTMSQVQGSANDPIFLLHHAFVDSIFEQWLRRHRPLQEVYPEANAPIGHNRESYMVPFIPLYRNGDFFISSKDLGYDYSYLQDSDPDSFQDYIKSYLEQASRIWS
Procedure: A truncated, His-tagged form of hTyr (hTyr-DHis) was expressed in HEK 293 cells and purified by metal affinity chromatography on Ni^2+-Sepharose as described by Cordes et al..
The L-Dopa oxidase activity of hTyr was assayed by a modification of the method of Winder and Harris. In this assay, the reaction product, L-dopaquinone, is trapped by MBTH (3-methyl-2-benzothiazoline hydrazone) to yield a stable pink dye that can be quantified at 490 nm. Reaction mixtures in 100 mM phosphate buffer, pH 7.0, were set up in microtiter plates together with appropriate blanks to account for nonenzymatic oxidation of substrate and product. After thermal equilibration at 37 °C for 10 min, the reactions were started by adding enzyme and monitored for 10–20 min at 490 nm. Absorption values were read at 15 s intervals and digitally stored for later analysis. Dose-response curves were obtained by testing various concentrations of each inhibitor in triplicate at a fixed substrate (L-Dopa) concentration of 1 mM.

human tyrosinase (hTyr) [2] = target: T1, human tyrosinase (hTyr); conditions: in vitro; cited from earlier work

SMILES | EC50 (human tyrosinase (hTyr) [1]) [µM] | further results
CC(=O)Nc1nc(-c2ccc(O)cc2O)c[nH]1 [W633] | 750 ± 60 | factor by which inhibitory activity is impaired when thiazole is replaced by another ring (human tyrosinase (hTyr) [1]): at least 200
Oc1ccc(O)cc1 [hydroquinone] | – | hTyr inhibition compared with thiazolyl resorcinols, in words (human tyrosinase (hTyr) [2]): clearly inferior to thiazolyl resorcinols
OC[C@H]1O[C@@H](Oc2ccc(O)cc2)[C@H](O)[C@@H](O)[C@@H]1O [arbutin] | – | hTyr inhibition compared with thiazolyl resorcinols, in words (human tyrosinase (hTyr) [2]): clearly inferior to thiazolyl resorcinols
O=C(Nc1nc(-c2ccc(O)cc2O)cs1)c1ccccc1 [W498] | 2.5 ± 0.1 | –
CCCCCCC(=O)Nc1nc(-c2ccc(O)cc2O)cs1 [W695] | 15 ± 1 | –
O=C(NC1CCCCC1)c1nc(-c2ccc(O)cc2O)cs1 [W607] | 56 ± 3 | inhibition of hTyr, result in words (human tyrosinase (hTyr) [1]): only moderately increases EC50
CCCCc1ccc(O)cc1O [W039, 4-butylresorcinol, reference compound] | 21 ± 4 | –
CC(C)Nc1nc(-c2ccc(O)cc2O)cs1 [W533] | 6.2 ± 0.2 | –
O=C(Nc1cccc(-c2ccc(O)cc2O)c1)C1CCCCC1 [W632] | > 3000 | factor by which inhibitory activity is impaired when thiazole is replaced by another ring (human tyrosinase (hTyr) [1]): at least 200
O=C(NC1CCCCC1)c1csc(-c2ccc(O)cc2O)n1 [W701] | > 3000 | inhibition of hTyr, result in words (human tyrosinase (hTyr) [1]): abolishes activity
Oc1ccccc1-c1csc(Nc2ncccn2)n1 [W539] | > 3000 | –
O=C(Nc1nc(-c2ccc(O)cc2O)cs1)C1CCCCC1 [W548] | 4.6 ± 0.2 | –
O=C(O)c1ccc(Nc2nc(-c3ccc(O)cc3O)cs2)cc1 [W529] | 2.6 ± 0.1 | –
Nc1nc(-c2ccc(O)cc2O)cs1 [W495, 4-(2-amino-1,3-thiazol-4-yl) resorcinol] | 51 ± 2 | –
Oc1ccc(-c2csc(Nc3ncccn3)n2)c(O)c1 [W311] | 3.2 ± 0.1 | inhibition of hTyr, result in words (human tyrosinase (hTyr) [1]): mediates efficient inhibition
CCC(=O)Nc1nc(-c2ccc(O)cc2F)cs1 [W480] | > 3000 | –
Oc1cccc(-c2csc(Nc3ncccn3)n2)c1O [W568] | > 3000 | –
OCc1ccc(Nc2nc(-c3ccc(O)cc3O)cs2)cc1 [W693] | 5.7 ± 0.2 | –
CC(C)(C)Nc1nc(-c2ccc(O)cc2O)cs1 [W534] | 25 ± 1 | –
CCCCc1ccc(O)c(C)c1O [W639] | 220 ± 10 | inhibition of hTyr, result in words (human tyrosinase (hTyr) [1]): markedly impaired inhibition
CCCCCCc1ccc(O)cc1O [W072, 4-hexylresorcinol, reference compound] | 93 ± 21 | –
Cc1sc(NC(=O)C2CCCCC2)nc1-c1ccc(O)cc1O [W625] | > 3000 | inhibition of hTyr, result in words (human tyrosinase (hTyr) [1]): abolished inhibition altogether
O=C(O)c1ccc(Nc2nc(-c3ccc(O)cc3O)cs2)cc1O [W570] | 3.5 ± 0.1 | –
Cc1cc(C)cc(Nc2nc(-c3ccc(O)cc3O)cs2)c1 [W537] | 160 ± 2 | inhibition of hTyr, result in words (human tyrosinase (hTyr) [1]): markedly impair inhibition

SMILES | EC50 (human tyrosinase (hTyr) [1]) [µM] | further results
CC(C)C(=O)Nc1nc(-c2ccc(O)cc2O)cs1 [W630, Thiamidol] | 1.1 ± 0.1 | –
CC(C)(C)c1ccc(C(=O)Nc2nc(-c3ccc(O)cc3O)cs2)cc1 [W669] | 81 ± 5 | inhibition of hTyr, result in words (human tyrosinase (hTyr) [1]): markedly impair inhibition
CCCNc1nc(-c2cc(O)cc(O)c2)cs1 [W624] | > 3000 | –
Oc1ccc(-c2csc(NCCc3ccccc3)n2)c(O)c1 [W496] | 140 ± 6 | inhibition of hTyr, result in words (human tyrosinase (hTyr) [1]): markedly impair inhibition
Oc1cccc(O)c1 [W089, resorcinol] | > 3000 | –
Oc1ccc(-c2csc(Nc3ncccn3)n2)cc1 [W452] | 19 ± 1 | –
Oc1ccc(-c2csc(NC3CCCCC3)n2)c(O)c1 [W694] | 16 ± 1 | –
CN(C(=O)C1CCCCC1)c1nc(-c2ccc(O)cc2O)cs1 [W605] | 1400 ± 160 | inhibition of hTyr, result in words (human tyrosinase (hTyr) [1]): strongly
CCCC(=O)Nc1nc(-c2cc(CCC)c(O)cc2O)cs1 [W681] | > 3000 | inhibition of hTyr, result in words (human tyrosinase (hTyr) [1]): abolished inhibition altogether
O=C(Cc1ccc(CO)cc1)Nc1nc(-c2ccc(O)cc2O)cs1 [W696] | 6.5 ± 0.2 | –
CNc1nc(-c2ccc(O)cc2O)cs1 [W366] | 33 ± 1 | –
OCCCCCCNc1nc(-c2ccc(O)cc2O)cs1 [W692] | 6.9 ± 0.2 | –
CCCCCCNc1nc(-c2ccc(O)cc2O)cs1 [W688] | 60 ± 2 | –
CC(C)(C)C(=O)Nc1nc(-c2ccc(O)cc2O)cs1 [W687] | 1.4 ± 0.1 | –
Oc1ccc(Nc2nc(-c3ccc(O)cc3O)cs2)cc1 [W542] | 9.8 ± 0.3 | –
CC(=O)Nc1nc(-c2ccc(O)cc2O)cs1 [W547] | 3.2 ± 0.6 | –
CCCC(=O)Nc1nc(-c2ccc(O)cc2O)cs1 [W577] | 3.5 ± 0.5 | –
CCCNc1nc(-c2ccc(O)cc2O)cs1 [W538] | 5.6 ± 1.4 | –
CC(C)(O)c1ccc(C(=O)Nc2nc(-c3ccc(O)cc3O)cs2)cc1 [W680] | 3.2 ± 0.2 | –
CN(c1nc(-c2ccc(O)cc2O)cs1)C1CCCCC1 [W646] | 40 ± 2 | inhibition of hTyr, result in words (human tyrosinase (hTyr) [1]): only moderately reduced inhibitory activity
Oc1ccc(-c2csc(Nc3ccccc3)n2)c(O)c1 [W367] | 10 ± 1 | –
OCCc1ccc(O)cc1O [W785] | 560 ± 90 | inhibition of hTyr, result in words (human tyrosinase (hTyr) [1]): markedly impaired inhibition
O=C(Nc1nc(-c2ccc(O)cc2O)cs1)c1ccc(CO)cc1 [W619] | 1.6 ± 0.4 | –
